This note sets out measurements from PMC9965018, “Marine-Derived Natural Product HDYL-GQQ-495 Targets P62 to Inhibit Autophagy” (Marine Drugs, 2023).

The test concerns the target T1, P62 (P62/SQSTM1) (Homo sapiens, UniProt Q13501).
T1 construct: MBP-P62 (purified recombinant)
Nature of the test: microscale thermophoresis (MST) with labelled MBP-P62, MBP as negative control; also induces polymerization of purified P62. Format: binding. (MST reads how a fluorescent partner responds to local heating, with and without ligand.)

A word on the Kd: it is the equilibrium constant for the complex coming apart.

T1 sequence (Q13501 2-440): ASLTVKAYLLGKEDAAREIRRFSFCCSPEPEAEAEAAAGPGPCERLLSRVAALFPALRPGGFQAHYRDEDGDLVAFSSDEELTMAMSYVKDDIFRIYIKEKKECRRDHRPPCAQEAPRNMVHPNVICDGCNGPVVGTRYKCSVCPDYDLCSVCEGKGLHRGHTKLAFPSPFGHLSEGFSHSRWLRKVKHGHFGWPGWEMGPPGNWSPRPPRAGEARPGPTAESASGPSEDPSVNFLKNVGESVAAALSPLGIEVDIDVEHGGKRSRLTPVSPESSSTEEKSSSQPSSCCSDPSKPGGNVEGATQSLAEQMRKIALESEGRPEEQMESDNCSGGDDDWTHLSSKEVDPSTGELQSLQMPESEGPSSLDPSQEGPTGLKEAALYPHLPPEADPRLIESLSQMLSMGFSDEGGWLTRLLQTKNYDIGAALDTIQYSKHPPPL

`O=C(c1ccc(OCCN2CCCCC2)cc1)c1c(O)nc2ccc(O)c3c2c1-c1cccc(O)c1C3=O` [HDYL-GQQ-495] came in with a dissociation constant (Kd) of 11.2 ± 4.07 µM.
